Measured values from patent publication US20260242843A1, “ASSAY SYSTEM FOR […] ANTIVIRAL AGENT USING INHIBITION OF VIRUS-DERIVED PROTEASE AS INDICATOR” (TOYAMA PREFECTURAL UNIVERSITY, priority 2023, published 2026).

Legend:
IAPV protease = test: Measurement of IAPV protease activity using purified enzyme (fluorescent peptide substrate); format: biochemical, Israeli acute paralysis virus (IAPV); details: inhibitors at final concentration of 1 mM, pre-incubated at 37° C. for 1 hour; fluorescence in absence of inhibitors = 100%
Method: RNA was extracted from the midgut of virus-infected honey bees using ISOGEN II (Nippon Gene Co., Ltd.), and the extracted RNA was reverse-transcripted using PrimeScript RT reagent Kit (Takara) to obtain midgut-derived cDNA. Subsequently, the midgut-derived cDNA was subjected to PCR reaction (30 cycles of 98° C. for 30 seconds, 60° C. for 30 seconds, and 68° C. for 2 minutes) using KOD FX Neo (TOYOBO Co., Ltd.) with IAPV Protease Primer-F1 (SEQ ID NO: 59) and IAPV Protease Primer-R (SEQ ID NO: 60). As a result, a cDNA fragment of IAPV protease was obtained, consisting of the base sequence of SEQ ID NO: 57 encoding the amino acid sequence of SEQ ID NO: 58. The cDNA fragment of the IAPV protease was subjected to restriction enzyme treatment with BamHI and HindIII. The expression vector pET21a (Merck) was also subjected to restriction enzyme treatment with BamHI and HindIII. The restriction enzyme-treated cDNA fragment of the IAPV protease and the restriction enzyme-treated pET21a DNA fragment were subjected to a ligation reaction at 16° C. for 1 hour using Ligation High Ver. 2 (TOYOBO Co., Ltd.) to join the vector and the cDNA fragment, and the ligation product was used to transform E. coli. Colony PCR was performed, and an expression vector containing the cDNA fragment of the IAPV protease was obtained. E. coli Rosseta-gami B (Merck) was transformed with the expression vector of the IAPV protease. A preculture was prepared in 50 ml of LB medium containing ampicillin, followed by subculturing in 500 ml of LB medium containing ampicillin. Then, the culture was grown until the absorbance at 600 nm reached 0.5, at which point isopropyl β-D-thiogalactopyranoside (IPTG) was added to a final concentration of 1 mM. The culture was then incubated at 15° C. for 24 hours. The culture was centrifuged (8000 rpm, 10 minutes, 4° C.) to collect E. coli cells. The collected E. coli cells were dissolved in 10 ml of a sonication buffer (50 mM Tris-HCl, pH 8.0; 50 mM NaCl; 1 mM EDTA; 1 mM DTT), and disrupted by ultrasonic disruption (sonication). The disruption solution was centrifuged (12000 rpm, 10 minutes, 4° C.) to obtain a supernatant of this bacterial cell disruption solution. The IAPV protease was then purified from the resulting supernatant to yield a purified protein solution. Purification was carried out by cation exchange chromatography using HiPrep SP XL 16/10 (Cytiva) with a 20 mM Tris-HCl (pH 7.5) buffer and a 20 mM Tris-HCl (pH 7.5) buffer containing 1 M NaCl, and by gel filtration chromatography using HiLoad 16/600 Superdex 200 (Cytiva) with a 50 mM phosphate buffer (pH 7.0) containing 0.15 M NaCl.
As a substrate for the measurement of IAPV protease activity, either Dnp-PNDIV DVTMQK(Nma)-NH2 or Nma-[…] (Dnp)-NH2, in which a peptide was linked to a fluorescent substrate, was synthesized and used. When the activity measurement substrate is cleaved by the protease, it emits fluorescence. The activity measurement substrate was prepared at a concentration of 20 μM in an assay buffer (50 mM citric acid buffer, pH 6.0; 150 mM NaCl; 1 mM EDTA; 1 mM DTT). The purified protein solution of the IAPV protease obtained in Example 10 was used as the enzyme solution. 50 μl of the assay buffer containing the activity measurement substrate was mixed with 50 μl of the enzyme solution, and the mixture was reacted at 37° C. for 30 minutes in a 96-well black plate, in the presence or absence of various inhibitors listed in Table 4. Fluorescence intensity was then measured using a TECAN fluorescence plate reader (Tecan Japan Co., Ltd.) at an excitation wavelength of 340 nm and a fluorescence emission wavelength of 440 nm. The various inhibitors were prepared at a final concentration of 1 mM and pre-incubated at 37° C. for 1 hour prior to the enzymatic reaction.

[1] = system: fusion protein of Maltose Binding Protein (MBP)-IAPV protease; test: IAPV protease activity measurement using crude enzyme solution of expressed MBP-IAPV protease fusion protein; format: biochemical, Israeli acute paralysis virus (IAPV); details: in the presence of E-64, absence of E-64 = 100%
Method: Midgut-derived cDNA was obtained from virus-infected honey bees in the same manner as in Example 10 and then subjected to PCR reaction (30 cycles of 98° C. for 30 seconds, 60° C. for 30 seconds, and 68° C. for 2 minutes) using KOD FX Neo (TOYOBO Co., Ltd.) with IAPV Protease Primer-F2 (SEQ ID NO: 61) and IAPV Protease Primer-R (SEQ ID NO: 60). As a result, a cDNA fragment of IAPV protease was obtained, consisting of the base sequence of SEQ ID NO: 57 encoding the amino acid sequence of SEQ ID NO: 58. The cDNA fragment of the IAPV protease was subjected to restriction enzyme treatment with BamHI and HindIII. […] Then, the culture was grown until the absorbance at 600 nm reached 0.5, at which point IPTG was added to a final concentration of 1 mM. […]
Subsequently, using a crude enzyme solution of the expressed fusion protein of IAPV protease as the enzyme solution, the IAPV protease activity was measured using the same method as in Example 11, in the presence or absence of E-64.
The fluorescence intensity measured in the absence of E-64 was reduced by the addition of E-64. When the fluorescence intensity measured in the absence of E-64 is defined as 100% relative activity, the relative activity of IAPV protease calculated from the fluorescence intensity measured in the presence of E-64 was 9% (FIG. 14). […]

[2] = system: virus-infected honey bees; test: Suppression of individual honey bee mortality by agent administration (aseptic in vivo agent evaluation rearing method); details: for viability compared to the control group: 100 μM in 50% sucrose solution, virus-infected honey bee population No. 2, FIG. 15
Method: A new aseptic in vivo agent evaluation rearing method for honey bees was established. Incubators and rearing boxes were sterilized with 70% ethanol after cleaning. Each hive box was populated with 30 to 35 honey bees. The honey bees were fed with a 50% sucrose solution (aseptically dissolved in sterile water) and a 50% sucrose solution containing pollen dissolved therein. The rearing temperature was maintained at 30° C. The 50% sucrose solutions were replaced daily, and the number of individual honey bees was measured at each replacement. Agents were administered dissolved in the 50% sucrose solutions. At the time when the viability had decreased to 50% or less of the initial level, total RNA was collected from the surviving individuals, and histochemical analyses were performed on the midgut and other tissues. Pharmacological analyses were conducted using the collected RNA, tissues, and blood.
E-64 ([(2S,3S)-3-carboxyoxirane-2-carbonyl]-L-leucine (4-guanidinobutyl)amide hemihydrate, manufactured by PEPTIDE INSTITUTE, INC.) was dissolved in a 50% sucrose solution at concentrations of 200 μM, 100 μM, and 50 μM. The resulting solutions were administered to honey bees in the honey bee populations Nos. 2 and 5, in which viral infection had been observed. Only 50% sucrose was administered to a control group (None). The E-64-containing solutions were replaced daily, and changes in the number of individual honey bees were measured at each replacement. FIGS. 9 and 10 show the results. Rearing was conducted using the aseptic in vivo agent evaluation rearing method, which has been described above.
E-64c (manufactured by PEPTIDE INSTITUTE, INC.) or E-64d (manufactured by PEPTIDE INSTITUTE, INC.) was dissolved in a 50% sucrose solution at a concentration of 100 μM. The resulting solutions were administered to honey bees in the honey bee population No. 2, in which viral infection had been observed. […] The solution containing E-64c or E-64d was replaced daily, and changes in the number of individual honey bees were measured at each replacement. […]

[3] = system: virus-infected honey bees; test: Recovery from intestinal tract damage in honey bees (BPB administration test); format: in vivo; details: E-64 100 μM in 50% sucrose, reared 10 days; BPB 10 mg/ml for 24 hours; FIG. 13
Method: Virus-infected and uninfected honey bees were reared for 10 days while receiving 50% sucrose. During the rearing period, Bromophenol Blue (BPB) (FUJIFILM Wako Pure Chemical Corporation) was dissolved in a 50% sucrose solution at a concentration of 10 mg/ml and administered to the virus-infected and uninfected honey bees for 24 hours. When the viability of the virus-infected group had decreased to approximately 50%, relative to the number of individual honey bees before rearing set to 100%, BPB was administered to each group of honey bees. After BPB administration, blood was collected from honey bees (≥30 individuals), and the concentration of BPB in the blood was measured by absorbance at 500 nm using a microvolume spectrophotometer, NanoDrop One (ThermoFisher Scientific).
Virus-infected honey bees were divided into a control group (None) to which 50% sucrose was administered, and an administered group (E-64) to which a solution of E-64 (PEPTIDE INSTITUTE, INC.) dissolved at 100 μM in 50% sucrose was administered. The honey bees were reared for 10 days. […] After BPB administration, blood was collected from honey bees (≥30 individuals), and the concentration of BPB in the blood was measured by absorbance at 500 nm using a microvolume spectrophotometer, NanoDrop One (ThermoFisher Scientific).

Row | Molecule | Relative Activity (%) of IAPV protease (IAPV protease) [%] | further results
1 | O=C(O)c1cc2ccccc2s1 [TNCA, benzo[b]thiophene-2-carboxylic acid] | 71 | –
2 | Cc1nc(-c2ccccc2F)c(C(=O)NC(Cc2ccccc2)C(=O)C(N)=O)o1 (centres unmarked) [dazcapistat] | 29 | –
3 | [(2S,3S)-3-carboxyoxirane-2-carbonyl]-L-leucine (4-guanidinobutyl)amide hemihydrate [E-64] | 5 | relative activity of IAPV protease [1]: 9%; individual honey bee mortality (viability) ([2]; E-64 at 200 μM, 100 μM, 50 μM in 50% sucrose solution, virus-infected honey bee populations Nos. 2 and 5, FIGS. 9 and 10): suppressed individual honey bee mortality; concentration of BPB in the blood (absorbance at 500 nm) [3]: reduced the concentration of BPB in the blood
4 | CCOC(=O)[C@H]1O[C@@H]1C(=O)N[C@@H](CC(C)C)C(=O)NCCC(C)C [E-64d, [(2S,3S)-3-ethoxycarbonyloxirane-2-carbonyl]-L-leucine (3-methylbutyl)amide] | 23 | viability compared to the control group [2]: higher viability compared to the control group
5 | CCOC(=O)[C@H]1O[C@@H]1C(=O)N[C@@H](CC(C)C)C(=O)NCCc1ccc(O)cc1 [JPM-OEt] | 17 | –
6 | O=C(NC1CC1)C(=O)C(Cc1ccccc1)NC(=O)[C@H]1CCC(=O)N1Cc1ccccc1 (some centres unmarked) [alicapistat] | 22 | –
7 | CCCNC(=O)[C@H]1O[C@@H]1C(=O)N[C@H](C(=O)N1CCC[C@H]1C(=O)OC)[C@@H](C)CC [CA074 methyl ester, [(2S,3S)-3-propylcarbamoyloxirane-2-carbonyl]-L-isoleucyl-L-proline methyl ester] | 32 | –
8 | CCCNC(=O)[C@H]1O[C@@H]1C(=O)N[C@H](C(=O)N1CCC[C@H]1C(=O)O)[C@@H](C)CC [CA074, [(2S,3S)-3-propylcarbamoyloxirane-2-carbonyl]-L-isoleucyl-L-proline] | 4 | –
9 | CC(C)CCNC(=O)[C@H](CC(C)C)NC(=O)[C@H]1O[C@@H]1C(=O)O [E-64c, [(2S,3S)-3-carboxyoxirane-2-carbonyl]-L-leucine (3-methylbutyl)amide] | 22 | viability compared to the control group [2]: higher viability compared to the control group
